Measurements as given in patent publication US5432200A, “Method for increasing urinary excretion of electrolytes” (priority 1993, dated 1995).
Where a name gives a salt, the structure may show the parent alone.

How the values were obtained:
[1] = Physiological effects: urinary composition in two patients, five phases of study (Example 8, Table 1); format: in vivo, human (patients); settings: for Urinary Ca / Urinary pH / Urinary Oxalate / Urinary K / Urinary Mg / Urinary Na / Urinary Citrate: mean of two patients, tablets/d: KCl 7, K citrate 10, Mg citrate 2.5, K-Mg citrate 7; for Urinary pH: placebo 6.26; for Urinary Oxalate: placebo 27; for Urinary K: placebo 31; for Urinary Mg: placebo 64; for Urinary Na: placebo 95; for Urinary Citrate: placebo 498
[2] = human, in vivo, po
Description: (§1) The study was performed with three normal subjects.
(§2) The subject underwent three phases of study. […] Urine was collected at frequent intervals for 24 hours after oral ingestion of each salt (at 8 a.m.).
(§3) Potassium bioavailability from potassium magnesium citrate was compared with that of potassium citrate. At each time period, the difference in urinary potassium following ingestion of potassium magnesium citrate (containing 49 meq potassium) or potassium citrate (containing 50 meq potassium) from that obtained at a corresponding time period following taking magnesium citrate (no potassium; therefore serving as control).
(§4) Magnesium bioavailability from potassium magnesium citrate was compared with that of magnesium citrate.
(§5) Citrate bioavailability from potassium magnesium citrate was compared with that of potassium citrate and magnesium citrate.

[3] = system: hypercalciuric nephrolithiasis; settings: cited from earlier work
[4] = Bioavailability of potassium, magnesium and citrate in normal subjects: cumulative increment in urinary excretion after single oral dose (Example 7); settings: urine 24 hours
Description: as §1, §2, §3, §4, §5

[5] = cited from earlier work
[6] = in vivo; cited from earlier work
nephrolithiasis = settings: cited from earlier work
[7] = hypercalciuric patients with nephrolithiasis treated with thiazide

## O=C([O-])CC(O)(CC(=O)[O-])C(=O)[O-].O=C([O-])CC(O)(CC(=O)[O-])C(=O)[O-].[K+].[K+].[K+].[K+].[Mg+2] [potassium magnesium citrate, tetrapotassium monomagnesium dicitrate]
[1]
  Urinary Ca: 106 mg/day
  Urinary pH: 6.94
  Urinary Oxalate: 23 mg/day
  Urinary K: 73 meq/d
  Urinary Mg: 116 mg/day
  Urinary Na: 92 meq/d
  Urinary Citrate: 968 mg/day
[1]; vs magnesium citrate
  urinary pH and citrate compared to magnesium citrate: higher values for urinary pH and citrate
[1]; vs placebo
  urinary calcium and oxalate compared to placebo: lower values for urinary calcium and oxalate
  urinary pH, magnesium, potassium and citrate compared to placebo: higher values for urinary pH, magnesium, potassium and citrate
[1]; vs potassium chloride
  urinary pH, magnesium and citrate compared to potassium chloride: higher urinary pH, magnesium, and citrate
[1]; vs potassium citrate
  citrate and magnesium excretion compared to potassium citrate: greater citrate excretion as well as enhanced magnesium excretion
[2]
  cumulative increment in urinary citrate (citrate bioavailability): much higher for potassium magnesium citrate than for the other two preparations

## O=C(O)CC(O)(CC(=O)O)C(=O)O [potassium citrate]
[1]; listed as Potassium Citrate
  Urinary Ca: 86 mg/day
  Urinary pH: 6.93
  Urinary Oxalate: 27 mg/day
  Urinary K: 80 meq/d
  Urinary Mg: 69 mg/day
  Urinary Na: 91 meq/d
  Urinary Citrate: 821 mg/day
[3]; [7]
  citrate excretion: augments citrate excretion
  effect on thiazide-induced hypokalemia: averts the development of hypokalemia
[3]; patients who have relapsed on thiazide therapy
  recurrent stone formation: prevents recurrent stone formation
[3]; potassium citrate therapy
  effect on thiazide-induced magnesium depletion: does not avert thiazide-induced magnesium depletion
[4]; 49 meq K (potassium magnesium citrate) vs 50 meq K (potassium citrate), magnesium citrate phase as control, FIG. 2
  cumulative increment in urinary potassium (potassium bioavailability): equivalent between the two preparations

## O=C(O)CC(O)(CC(=O)O)C(=O)O [magnesium citrate]
[1]; listed as Magnesium Citrate
  Urinary Ca: 137 mg/day
  Urinary pH: 6.13
  Urinary Oxalate: 23 mg/day
  Urinary K: 38 meq/d
  Urinary Mg: 113 mg/day
  Urinary Na: 82 meq/d
  Urinary Citrate: 718 mg/day
[5]; magnesium salts provided in small divided doses
  magnesiuric and citraturic effect compared with magnesium oxide: equivalent magnesiuric and citraturic effect as magnesium oxide
[5]; vs magnesium oxide
  absorbability compared with magnesium oxide: more soluble and absorbable than magnesium oxide
[4]; 24.5 meq Mg (potassium magnesium citrate) vs 25 meq Mg (magnesium citrate), potassium citrate phase as control, FIG. 3
  cumulative increment in urinary magnesium (magnesium bioavailability or absorption): equivalent magnesium bioavailability between the two preparations

## [Cl-].[K+] [potassium chloride]
[1]
  Urinary Ca: 103 mg/day
  Urinary pH: 5.84
  Urinary Oxalate: 27 mg/day
  Urinary K: 90 meq/d
  Urinary Mg: 73 mg/day
  Urinary Na: 81 meq/d
  Urinary Citrate: 636 mg/day
[6]
  side effects: arrhythmia and diarrhea

## NS(=O)(=O)c1cc2c(cc1Cl)NCNS2(=O)=O [thiazide]
nephrolithiasis; thiazide therapy, by provoking renal loss of potassium and magnesium
  potassium and magnesium depletion: may cause hypokalemia and magnesium depletion
nephrolithiasis; use of thiazide alone
  relapse rate: 37.5-57.1%
